Source: ChEMBL document CHEMBL4130518, “Apratoxin S10, a Dual Inhibitor of Angiogenesis and Cancer Cell Growth To Treat Highly Vascularized Tumors” (ACS Med Chem Lett, 2017)
Active and inactive are the calls of the source. No cut-off for these calls is given here.

Key:
[1] = Half life in KCl/HCl buffer at pH 2.32 after 24 hrs by HPLC-MS analysis; type: physicochemical
Huh-7 [2] = assay: Antiproliferative activity against human HuH7 cells after 48 hrs by MTT assay; type: functional, cell-based; settings: Huh-7, 48 h
HUVEC [3] = assay: Antiangiogenic activity in HUVEC assessed as inhibition of tube like structures formation at 10 pM to 1 uM after 14 hrs by matrigel based inverted microscopy; type: functional, cell-based; settings: Homo sapiens
A498 [4] = assay: Antiproliferative activity against human A498 cells after 48 hrs by MTT assay; type: functional, cell-based; settings: A498, 48 h
NCI-H727 [5] = assay: Antiproliferative activity against human NCI-H727 cells after 48 hrs by MTT assay; type: functional, cell-based; settings: NCI-H727, 48 h
HCT-116 = assay: Antiproliferative activity against human HCT116 cells after 48 hrs by MTT assay; type: functional, cell-based; settings: HCT-116, 48 h
HUVEC [6] = assay: Antiangiogenic activity in HUVEC assessed as inhibition of tube like structures formation at < 100 nM after 14 hrs by matrigel based inverted microscopy; type: functional, cell-based; settings: Homo sapiens
HUVEC [7] = assay: Antiangiogenic activity in HUVEC assessed as inhibition of tube like structures formation at 100 nM to 1 uM after 14 hrs by matrigel based inverted microscopy; type: functional, cell-based; settings: Homo sapiens
A498 [8] = assay: Downregulation of MET in human A498 cells at 10 pM to 1 uM after 24 hrs by AlphaLISA based immuno assay; type: functional, cell-based
HUVEC [9] = assay: Downregulation of VEGFR2 expression level in HUVEC at >= 10 nM after 14 hrs by immunoblot analysis; type: functional, cell-based; settings: Homo sapiens
NCI-H727 [10] = assay: Inhibition of IL-6 secretion in human NCI-H727 cells at 10 pM to 1 uM after 24 hrs by AlphaLISA based immuno assay; type: functional, cell-based
Huh-7 [11] = assay: Downregulation of FGFR4 in human HuH7 cells at 10 pM to 1 uM after 24 hrs by AlphaLISA based immuno assay; type: functional, cell-based
HUVEC [12] = assay: Antiangiogenic activity in HUVEC assessed as decrease in number of junctions at 10 pM after 14 hrs by branch point counting analysis; type: functional, cell-based; settings: Homo sapiens
HUVEC [13] = assay: Antiangiogenic activity in HUVEC assessed as inhibition of tube like structures formation after 14 hrs by matrigel based inverted microscopy; type: functional, cell-based; settings: Homo sapiens
HUVEC [14] = assay: Antiangiogenic activity in HUVEC assessed as diminishing of branch points at 10 pM after 14 hrs by inverted microscopy; type: functional, cell-based; settings: Homo sapiens
Huh-7 [15] = assay: Inhibition of IL-6 secretion in human HuH7 cells at 10 pM to 1 uM after 24 hrs by AlphaLISA based immuno assay; type: functional, cell-based
NCI-H727 [16] = assay: Downregulation of IGF1Rbeta in human NCI-H727 cells at 10 pM to 1 uM after 24 hrs by AlphaLISA based immuno assay; type: functional, cell-based
NCI-H727 [17] = assay: Downregulation of VEGFR2 in human NCI-H727 cells at 10 pM to 1 uM after 24 hrs by AlphaLISA based immuno assay; type: functional, cell-based
NCI-H727 [18] = assay: Inhibition of VEGF-A secretion in human NCI-H727 cells at 10 pM to 1 uM after 24 hrs by AlphaLISA based immuno assay; type: functional, cell-based
A498 [19] = assay: Inhibition of VEGF-A secretion in human A498 cells at 10 pM to 1 uM after 24 hrs by AlphaLISA based immuno assay; type: functional, cell-based
Huh-7 [20] = assay: Inhibition of VEGF-A secretion in human HuH7 cells at 10 pM to 1 uM after 24 hrs by AlphaLISA based immuno assay; type: functional, cell-based
HUVEC [21] = assay: Cytotoxicity against HUVEC assessed as decrease in cell viability after 48 hrs by MTT assay; type: functional, cell-based; settings: Homo sapiens
A498 [22] = assay: Inhibition of IL-6 secretion in human A498 cells at 10 pM to 1 uM after 24 hrs by AlphaLISA based immuno assay; type: functional, cell-based
A498 [23] = assay: Downregulation of EGFR in human A498 cells at 10 pM to 1 uM after 24 hrs by AlphaLISA based immuno assay; type: functional, cell-based

With `CC[C@H](C)[C@H]1C(=O)N2CCC[C@H]2C(=O)O[C@H](C(C)(C)C)C[C@@H](C)C[C@@H](O)[C@H](C)C2=N[C@H](CCC(=O)N[C@@H](Cc3ccc(OC)cc3)C(=O)N(C)[C@@H](C)C(=O)N1C)CS2` the half-life [1] was > 24 h.

With `CC[C@H](C)[C@H]1C(=O)N2CCC[C@H]2C(=O)O[C@H](C(C)(C)C)C[C@@H](C)C[C@@H](O)[C@H](C)C2=N[C@@H](CCC(=O)N[C@@H](Cc3ccc(OC)cc3)C(=O)N(C)[C@@H](C)C(=O)N1C)CS2` the half-life [1] was > 24 h.

For `C#Cc1cccc(Nc2ncnc3cc(OCCOC)c(OCCOC)cc23)c1` [ERLOTINIB], the IC50 (Huh-7 [2]) was 25 µM, the inhibition (HUVEC [3]) was “inactive” and the IC50 (A498 [4]) was 12.5 µM. For the same compound, the IC50 (NCI-H727 [5]) was > 6.24 µM.

In the case of `COc1cc2nccc(Oc3ccc(NC(=O)C4(C(=O)Nc5ccc(F)cc5)CC4)cc3)c2cc1OC` [CABOZANTINIB], the IC50 (Huh-7 [2]) is reported as 4.35 µM, the inhibition (HUVEC [3]) is reported as “inactive” and the IC50 (A498 [4]) is reported as 8.46 µM. It also gave an IC50 (NCI-H727 [5]) of 14 µM.

For `CC[C@H](C)[C@H]1C(=O)N2CCC[C@H]2C(=O)O[C@H](C(C)(C)C)C[C@@H](C)C[C@@H](O)C(C)(C)C2=N[C@@H](CCC(=O)N[C@@H](Cc3ccc(OC)cc3)C(=O)N(C)[C@@H](C)C(=O)N1C)CS2`, the IC50 (HCT-116) was 0.00199 µM and the half-life [1] was > 24 h.

For `CCN(CC)CCNC(=O)c1c(C)[nH]c(/C=C2\C(=O)Nc3ccc(F)cc32)c1C` [SUNITINIB], the IC50 (Huh-7 [2]) was 4.71 µM, the inhibition (HUVEC [6]) was “inactive” and the IC50 (A498 [4]) was 7.98 µM. The IC50 (NCI-H727 [5]) was 10.1 µM and the inhibition (HUVEC [7]) was “Active”.

With `CC[C@H](C)[C@H]1C(=O)N2CCC[C@H]2C(=O)O[C@H](C(C)(C)C)C[C@@H](C)C[C@@H](O)C(C)(C)C2=N[C@H](CCC(=O)N[C@@H](Cc3ccc(OC)cc3)C(=O)N(C)[C@@H](C)C(=O)N1C)CS2` the IC50 (Huh-7 [2]) was 0.00083 µM, the IC50 (HCT-116) was 0.00147 µM and the half-life [1] was > 24 h. For the same compound, the IC50 (A498 [4]) was 0.00335 µM and the IC50 (NCI-H727 [5]) was 0.00255 µM.

With `CC[C@H](C)[C@@H]1C(=O)N2CCC[C@@H]2C(=O)O[C@H](C(C)(C)C)C[C@@H](C)C[C@@H](O)C(C)(C)C2=N[C@H](CCC(=O)N[C@@H](Cc3ccc(OC)cc3)C(=O)N(C)[C@@H](C)C(=O)N1C)CS2` the Activity (A498 [8]) was “Active”, the Activity (HUVEC [9]) was “Active” and the inhibition (NCI-H727 [10]) was “Active”. The Activity (Huh-7 [11]) was “Active”, the Activity (HUVEC [12]) was “Active” and the inhibition (HUVEC [13]) was “Dose-dependent effect”. The Activity (HUVEC [14]) was “Active”, the inhibition (Huh-7 [15]) was “Active” and the Activity (NCI-H727 [16]) was “Active”. The Activity (NCI-H727 [17]) was “Active”, the inhibition (NCI-H727 [18]) was “Active” and the inhibition (A498 [19]) was “Active”. The inhibition (Huh-7 [20]) was “Active”, the Activity (HUVEC [21]) was “Active” and the inhibition (A498 [22]) was “Active”. For the same compound, the Activity (A498 [23]) was “Active”.
